Legend:
[1] = target: hGYS1 enzyme (recombinant hGYS1/GN1 protein) (Homo sapiens (Human), UniProt P13807); test: GYS1 coupled enzyme assay (PK/LDH); type: biochemical; details: hGYS1/GN1 50 nM, UDP-Glucose 0.8 mM, G6P 1 mM; geometric mean of at least 2 runs
[2] = tested on: hGYS1 enzyme / glycogen synthesis in HeLa cells; test: GYS1 cell based assay (glycogen synthesis, Glucose-glo); parameters: species or system human; details: 24 h incubation, 20 mM glucose, geometric mean of at least 2 runs
Method in brief: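 HeLa cells starved 24 h in medium containing only 1× Glutamax were plated onto compound in medium with 20 mM glucose (1% DMSO final) for 24 h, 37 °C, 5% CO2. Acid lysates were Tris-quenched, glucoamylase-digested (pH 5.3, 1 h, 37 °C) and read by Glucose-glo luminescence. IC50 came from Hill fits, as geometric mean of ≥2 runs.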

hGYS1 enzyme (recombinant hGYS1/GN1 protein), sequence (P13807 whole entry): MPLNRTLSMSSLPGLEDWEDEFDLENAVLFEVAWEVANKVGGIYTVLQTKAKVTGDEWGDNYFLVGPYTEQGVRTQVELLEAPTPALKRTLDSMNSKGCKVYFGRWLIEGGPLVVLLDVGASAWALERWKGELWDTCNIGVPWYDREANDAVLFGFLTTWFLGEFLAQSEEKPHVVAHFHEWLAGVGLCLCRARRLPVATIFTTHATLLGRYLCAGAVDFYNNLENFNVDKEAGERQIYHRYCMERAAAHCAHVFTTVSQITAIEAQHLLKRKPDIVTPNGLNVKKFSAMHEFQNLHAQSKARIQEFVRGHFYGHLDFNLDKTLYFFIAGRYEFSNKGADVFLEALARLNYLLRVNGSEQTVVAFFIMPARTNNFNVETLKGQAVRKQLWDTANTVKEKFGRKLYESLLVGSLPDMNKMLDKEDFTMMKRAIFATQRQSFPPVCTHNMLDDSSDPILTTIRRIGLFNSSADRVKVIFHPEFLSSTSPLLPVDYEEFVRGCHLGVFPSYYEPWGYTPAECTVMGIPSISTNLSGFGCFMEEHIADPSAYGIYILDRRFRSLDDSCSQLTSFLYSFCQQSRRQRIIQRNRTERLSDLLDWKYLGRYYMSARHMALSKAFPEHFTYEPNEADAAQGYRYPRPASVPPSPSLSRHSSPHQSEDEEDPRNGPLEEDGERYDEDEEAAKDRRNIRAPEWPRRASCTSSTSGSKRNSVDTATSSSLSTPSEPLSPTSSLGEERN
hGYS1 enzyme (recombinant hGYS1/GN1 protein), sequence (P46976 whole entry partner): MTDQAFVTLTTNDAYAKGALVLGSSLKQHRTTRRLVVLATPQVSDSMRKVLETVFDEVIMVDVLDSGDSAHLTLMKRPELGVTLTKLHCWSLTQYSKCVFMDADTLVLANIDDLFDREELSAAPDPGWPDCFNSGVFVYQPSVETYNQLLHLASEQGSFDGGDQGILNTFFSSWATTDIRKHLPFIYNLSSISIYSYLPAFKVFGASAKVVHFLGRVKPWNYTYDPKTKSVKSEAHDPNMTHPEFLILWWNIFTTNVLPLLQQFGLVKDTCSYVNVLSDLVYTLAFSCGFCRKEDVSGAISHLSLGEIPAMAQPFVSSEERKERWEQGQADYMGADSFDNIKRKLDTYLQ

Row | SMILES | IC50 [1] | IC50 ([2]; Homo sapiens, HeLa, 24 h) | IC50 [2]
1 | O=C(NC(c1ccccc1)c1ccc(C2CCC2)cn1)[C@@H]1C[C@@H](F)CN1C(=O)Cc1cnn[nH]1 (single isomer, unassigned) [Compound 610, (2S,4R)-N-[(S) or (R)-(5-cyclobutylpyridin-2-yl)(phenyl)methyl]-4-fluoro-1-[2-(1H-1,2,3-triazol-5-yl)acetyl]pyrrolidine-2-carboxamide] | 107 nM | 1010 nM | –
2 | CCn1cc(CC(=O)N2C[C@H](F)C[C@H]2C(=O)N[C@@H](c2ccccc2)c2ccc(C(C)C)c(F)n2)ncc1=O [Compound 797, (2S,4R)-1-[2-(4-ethyl-5-oxo-4,5-dihydropyrazin-2-yl)acetyl]-4-fluoro-N-[(S)-[6-fluoro-5-(propan-2-yl)pyridin-2-yl](phenyl)methyl] pyrrolidine-2-carboxamide] | 16 nM | 290 nM | –
3 | COc1nc(CC(=O)N2C[C@H](F)C[C@H]2C(=O)N[C@@H](c2ccccc2)c2ccc(C3CC3)c(F)n2)nn1C [Compound 743, (2S,4R)-N-[(S)-(5-cyclopropyl-6-fluoropyridin-2-yl)(phenyl)methyl]-4-fluoro-1-[2-(5-methoxy-1-methyl-1H-1,2,4-triazol-3-yl)acetyl]pyrrolidine-2-carboxamide] | 28 nM | 480 nM | –
4 | Cn1ncc(C(F)F)c1CC(=O)N1C[C@H](F)C[C@H]1C(=O)N[C@@H](c1ccccc1)c1ccc(C2CC2)c(F)n1 [Compound 754, (2S,4R)-N-[(S)-(5-cyclopropyl-6-fluoropyridin-2-yl)(phenyl)methyl]-1-{2-[4-(difluoromethyl)-1-methyl-1H-pyrazol-5-yl]acetyl}-4-fluoropyrrolidine-2-carboxamide] | 27 nM | 420 nM | –
5 | CC(=O)N1CCOCC1C(=O)N1C[C@H](F)C[C@H]1C(=O)N[C@@H](c1ccccc1)c1ccc(C(C)C)cc1 (stereo partly drawn) [Compound 149, (2S,4R)-1-(4-acetylmorpholine-3-carbonyl)-4-fluoro-N-[(S)-phenyl[4-(propan-2-yl)phenyl]methyl]pyrrolidine-2-carboxamide] | 332 nM | > 10000 nM | –
6 | CCn1cc(C)cc(CC(=O)N2C[C@H](F)C[C@H]2C(=O)N[C@@H](c2ccccc2)c2ccc(C3CC3)c(F)n2)c1=O [Compound 740, (2S,4R)-N-[(S)-(5-cyclopropyl-6-fluoropyridin-2-yl)(phenyl)methyl]-1-[2-(1-ethyl-5-methyl-2-oxo-1,2-dihydropyridin-3-yl)acetyl]-4-fluoropyrrolidine-2-carboxamide] | 9 nM | 320 nM | –
7 | CC(C)c1ccc(C(NC(=O)[C@@H]2C[C@@H](F)CN2C(=O)Cc2cnn[nH]2)c2cccc(-c3cnco3)c2)nc1F (single isomer, unassigned) [Compound 692, (2S,4R)-4-fluoro-N-[(R) or (S)-[6-fluoro-5-(propan-2-yl)pyridin-2-yl][3-(1,3-oxazol-5-yl)phenyl]methyl]-1-[2-(1H-1,2,3-triazol-5-yl)acetyl]pyrrolidine-2-carboxamide] | 2480 nM | – | > 30000 nM
8 | CCn1cc(CC(=O)N2C[C@H](F)C[C@H]2C(=O)N[C@@H](c2ccccc2)c2ccc(C3CC3)c(F)n2)cc(C)c1=O [Compound 739, (2S,4R)-N-[(S)-(5-cyclopropyl-6-fluoropyridin-2-yl)(phenyl)methyl]-1-[2-(1-ethyl-5-methyl-6-oxo-1,6-dihydropyridin-3-yl)acetyl]-4-fluoropyrrolidine-2-carboxamide] | 17 nM | 340 nM | –
9 | Cn1c(CC(=O)N2C[C@H](F)C[C@H]2C(=O)N[C@@H](c2ccccc2)c2ccc(C3CC3)c(F)c2)noc1=O [Compound 494, (2S,4R)-N-[(S)-(4-cyclopropyl-3-fluorophenyl)(phenyl)methyl]-4-fluoro-1-[2-(4-methyl-5-oxo-4,5-dihydro-1,2,4-oxadiazol-3-yl)acetyl]pyrrolidine-2-carboxamide] | 661 nM | 12400 nM | –

From US11814367B2, “Inhibitors of glycogen synthase 1 (GYS1) and methods of use thereof” (Maze Therapeutics, Inc., priority 2021, dated 2023)
